{
  "source": "patent US20120253264A1",
  "about": "“PHOTOCHEMICAL INTERNALIZATION METHOD” (priority 2009, published 2012)",
  "key": {"[1]": {"test": "Stability of aqueous solutions of TPPS2a and TPCS2a salts at 40° C. for 31 days, analyzed by HPLC", "type": "physicochemical", "method": "Aqueous solutions of TPPS2a salts (approx. 1% weight) were kept at 40° C. for 31 days. The solutions were analyzed by HPLC(HP 1100). The HPLC conditions were as follows:\nColumn: Agilent Extend C-18\nMobile phase: 85% methanol, 15% water\nDetector: UV detector, 415 nm\nAqueous solutions of TPCS2a salts (approx. 1% weight) were kept at 40° C. for 31 days."}, "[2]": {"test": "Solubility in water of TPPS2a and TPCS2a salts (water added in 0.2 ml portions to approx. 50 mg)", "source_text": "(§1) The mixture was agitated until solid particles were broken up and dissolved.\nas §1"}, "[3]": {"conditions": "TPPS2a salts, aqueous solution approx. 1% weight, 40° C., 31 days, HPLC UV 415 nm"}},
  "note": "Where two headings read alike, the source gives them in different places.",
  "data": [
    {"molecule": "NCCO.NCCO.O=S(=O)(O)c1ccc(-c2c3nc(c(-c4ccc(S(=O)(=O)O)cc4)c4ccc([nH]4)c(-c4ccccc4)c4nc(c(-c5ccccc5)c5ccc2[nH]5)C=C4)C=C3)cc1", "note": "[Example 1, Meso-Tetraphenyl Porphyrin Disulphonate Bis(Monoethanolamine)]", "values": [
      {"measurement": "Degradation", "setting": "[1]; [3]", "result": "No degradation"}
    ]},
    {"molecule": "CNCC(O)C(O)C(O)C(O)CO.CNCC(O)C(O)C(O)C(O)CO.O=S(=O)(O)c1ccc(-c2c3nc(c(-c4ccccc4)c4ccc([nH]4)c(-c4ccccc4)c4nc(c(-c5ccc(S(=O)(=O)O)cc5)c5ccc2[nH]5)C=C4)C=C3)cc1", "note": "[Example 2, Meso-Tetraphenyl Porphyrin Disulphonate Bis(Meglumate)]", "values": [
      {"measurement": "Minimum solubility in water", "setting": "[2]", "result": 89.7, "unit": "mg/mL"},
      {"measurement": "Degradation", "setting": "[1]", "result": "No degradation"}
    ]},
    {"molecule": "O=S(=O)(O)c1ccc(-c2c3nc(c(-c4ccccc4)c4ccc([nH]4)c(-c4ccccc4)c4nc(c(-c5ccc(S(=O)(=O)O)cc5)c5ccc2[nH]5)C=C4)C=C3)cc1.OCCNCCO.OCCNCCO", "note": "[Example 4, Meso-Tetraphenyl Porphyrin Disulphonate Bis(Diethanolamine)]", "values": [
      {"measurement": "Degradation", "setting": "[1]", "result": "No degradation"}
    ]},
    {"molecule": "O=S(=O)(O)c1ccc(-c2c3nc(c(-c4ccc(S(=O)(=O)O)cc4)c4ccc([nH]4)c(-c4ccccc4)c4nc(c(-c5ccccc5)c5ccc2[nH]5)C=C4)C=C3)cc1.OCCN1CCCC1.OCCN1CCCC1", "note": "[Example 5, Meso-Tetraphenyl Porphyrin Disulphonate Bis(1-(2-Hydroxyethyl)Pyrrolidine)]", "values": [
      {"measurement": "Degradation", "setting": "[1]", "result": "No degradation"}
    ]},
    {"molecule": "O=S(=O)(O)c1ccc(-c2c3nc(c(-c4ccc(S(=O)(=O)O)cc4)c4ccc([nH]4)c(-c4ccccc4)c4nc(c(-c5ccccc5)c5ccc2[nH]5)C=C4)C=C3)cc1.OCCN(CCO)CCO.OCCN(CCO)CCO", "note": "[Example 6, Meso-Tetraphenyl Porphyrin Disulphonate Bis(Triethanolamine)]", "values": [
      {"measurement": "Degradation", "setting": "[1]; [3]", "result": "No degradation"}
    ]},
    {"molecule": "Meso-Tetraphenyl Chlorin Disulphonate Bis(Meglumate) [Example 8]", "values": [
      {"measurement": "Minimum solubility in water", "setting": "[2]; TPCS2a salts, water added in 0.2 ml portions to approx. 50 mg until dissolved", "result": 38.9, "unit": "mg/mL"},
      {"measurement": "Degradation", "setting": "[1]; TPCS2a salts, aqueous solution approx. 1% weight, 40° C., 31 days, HPLC", "result": "No degradation"}
    ]},
    {"molecule": "Meso-Tetraphenyl Chlorin Disulphonate Bis(Monoethanolamine) [Example 7]", "values": [
      {"measurement": "Degradation", "setting": "[1]", "result": "No degradation"}
    ]}
  ]
}
